Measured values reported in ChEMBL document CHEMBL5331068, “Briarane-type diterpenoids, the inhibitors of osteoclast formation by interrupting Keap1-Nrf2 interaction and activating Nrf2 pathway” (Eur J Med Chem, 2023).
The source made the active and inactive calls. No cut-off for these calls is given here.

Assays:
BMDM = assay: Anti-osteoclastogenesis activity in C57BL/6 mouse BMDM cells assessed as inhibition of RANKL-induced osteoclastogenesis at 10 uM incubated for 7 days in the presence of M-CSF by TRAP-staining based microscopic analysis relative to control; type: functional; conditions: for inhibition at 10 µM: C57BL/6, BMDM, 168 h, time 7 day
[1] = Cytotoxicity against C57BL/6 mouse BMDM cells incubated for 48 hrs by MTT assay; type: toxicity, cell-based; conditions: BMDM cells (bone marrow-derived macrophages)

| SMILES | inhibition at 10 µM (BMDM) [%] | CC50 at 48 h [1] [µM] | inhibition (BMDM; time 7.0 day) |
| --- | --- | --- | --- |
| CC(=O)O[C@H]1CC/C(C)=C\[C@@H]2OC(=O)[C@H](C)[C@@]2(O)[C@@H](OC(C)=O)[C@H]2[C@]3(CC[C@H](OC(C)=O)[C@]12C)CO3 [JUNCEELLOLIDE K] | 86.6 | > 50 |  |
| CC(=O)O[C@H]1CC[C@]2(CO2)[C@@H]2[C@H](OC(C)=O)[C@@]3(O)[C@H](/C=C(/C)[C@H](OC(C)=O)C[C@H](OC(C)=O)[C@@]12C)OC(=O)[C@@H]3C [11ALPHA,20ALPHA-EPOXYJUNCEELLOLIDE] | 58.1 | > 50 |  |
| C=C1CC[C@H](OC(C)=O)[C@@]2(C)[C@@H](OC(C)=O)C[C@@H](OC(=O)CC(C)C)[C@]3(CO3)[C@@H]2[C@H](OC(C)=O)[C@]2(O)[C@@H](C)C(=O)O[C@H]2[C@H]1Cl [JUNCENOLIDE J] | 98.8 | > 50 |  |
| C=C1CC[C@H](OC(C)=O)[C@]2(C)[C@@H](OC(C)=O)C[C@@H](OC(C)=O)/C(COC(=O)CC(C)C)=C\[C@@H]3OC(=O)[C@H](C)[C@@]3(O)[C@@H](OC(C)=O)[C@@H]12 | 91.3 | > 50 |  |
| C=C1CC[C@H](OC(=O)CC(C)C)[C@]2(C)[C@@H](OC(C)=O)C[C@@H](OC(C)=O)/C(C)=C\[C@@H]3OC(=O)[C@H](C)[C@@]3(O)[C@@H](OC(C)=O)[C@@H]12 | 68 | > 50 |  |
| CC(=O)O[C@H]1/C=C\C(COC(=O)CC(C)C)=C/[C@@H]2OC(=O)[C@H](C)[C@@]2(O)[C@@H](OC(C)=O)[C@H]2[C@@]3(CO3)[C@H](OC(=O)CC(C)C)C[C@H](OC(C)=O)[C@]12C | 25 | > 50 |  |
| CC(=O)O[C@H]1/C=C\C(CCl)=C/[C@@H]2OC(=O)[C@H](C)[C@@]2(O)[C@@H](OC(C)=O)[C@H]2[C@@]3(CO3)[C@H](OC(C)=O)C[C@H](OC(=O)CC(C)C)[C@]12C | 18 | > 50 |  |
| CC(=O)O[C@H]1[C@@H](OC(=O)CC(C)C)[C@]2(CO2)[C@@H]2[C@H](OC(C)=O)[C@@]3(O)[C@H](/C=C(CO)\C=C/[C@H](OC(C)=O)[C@@]2(C)[C@H]1OC(C)=O)OC(=O)[C@@H]3C | 55.8 | > 50 |  |
| C=C1[C@H](OC(C)=O)C[C@H](OC(C)=O)[C@@]2(C)[C@@H](OC(C)=O)C[C@@H](OC(C)=O)[C@]3(CO3)[C@@H]2[C@H](OC(C)=O)[C@]2(O)[C@@H](C)C(=O)O[C@H]2[C@H]1Cl | 80.8 | > 50 |  |
| CC(=O)O[C@H]1/C=C\C(CCl)=C/[C@@H]2OC(=O)[C@H](C)[C@@]2(O)[C@@H](OC(C)=O)[C@H]2[C@@]3(CO3)[C@H](OC(=O)CC(C)C)C[C@H](OC(C)=O)[C@]12C | 29.1 | > 50 |  |
| CCOCC1=C/[C@@H]2OC(=O)[C@H](C)[C@@]2(O)[C@@H](OC(C)=O)[C@H]2[C@@]3(CO3)[C@H](OC(=O)CC(C)C)C[C@H](OC(C)=O)[C@]2(C)[C@@H](OC(C)=O)/C=C\1 | 51.2 | > 50 |  |
| C=C1CC[C@H](OC(C)=O)[C@]2(C)[C@@H](OC(C)=O)C[C@@H](OC(C)=O)/C(C)=C\[C@@H]3OC(=O)[C@H](C)[C@@]3(O)[C@@H](OC(C)=O)[C@@H]12 | 58.7 | > 50 |  |
| CC(=O)O[C@H]1/C=C\C(CO)=C/[C@@H]2OC(=O)[C@H](C)[C@@]2(O)[C@@H](OC(C)=O)[C@H]2[C@@]3(CO3)[C@H](OC(C)=O)C[C@H](OC(C)=O)[C@]12C |  | < 10 |  |
| CC(=O)O[C@H]1/C=C\C(CO)=C/[C@@H]2OC(=O)[C@H](C)[C@@]2(O)[C@@H](OC(C)=O)[C@H]2[C@@]3(CO3)[C@H](OC(C)=O)C[C@H](OC(=O)CC(C)C)[C@]12C | 68 | > 50 |  |
| C=C1/C=C/[C@H](OC(C)=O)[C@@]2(C)[C@@H](OC(C)=O)C[C@@H](OC(=O)CC(C)C)[C@]3(CO3)[C@@H]2[C@H](OC(C)=O)[C@]2(O)[C@@H](C)C(=O)O[C@H]2[C@H]1Cl [GEMMACOLIDE I] | 62.2 | > 50 |  |
| C=C1CC[C@H](OC(C)=O)[C@]2(C)[C@@H](OC(C)=O)C[C@@H](OC(C)=O)/C(C(=O)OC)=C\[C@@H]3OC(=O)[C@H](C)[C@@]3(O)[C@@H](OC(C)=O)[C@@H]12 | 49.4 | > 50 |  |
| C=C1[C@H]2O[C@]3([C@H](C)C(=O)O[C@H]3[C@H]1Cl)[C@@H](OC(C)=O)[C@H]1[C@]3(CC[C@H](OC(C)=O)[C@]1(C)[C@@H](OC(C)=O)[C@@H]2OC(C)=O)CO3 | 12.2 | > 50 |  |
| CC(=O)OC1[C@@H](OC(=O)CC(C)C)[C@]2(CO2)[C@@H]2[C@H](OC(C)=O)[C@@]3(O)[C@H](/C=C(CCl)\C=C/[C@H](OC(=O)COC(=O)CC(C)C)[C@@]2(C)[C@H]1OC(C)=O)OC(=O)[C@@H]3C (some centres not stated) | 86.6 | > 50 |  |
| C=C1CC[C@H](OC(C)=O)[C@]2(C)[C@@H](OC(C)=O)CC/C(C)=C\[C@@H]3OC(=O)[C@H](C)[C@@]3(O)[C@@H](OC(C)=O)[C@@H]12 | 64.5 | > 50 |  |
| C=C1/C=C/[C@H](OC(C)=O)[C@@]2(C)[C@@H](OC(C)=O)CC[C@]3(CO3)[C@@H]2[C@H](OC(C)=O)[C@]2(O)[C@@H](C)C(=O)O[C@H]2[C@H]1Cl [JUNCEELLOLIDE C] | 75 | > 50 |  |
| C=C1CC[C@H](OC(C)=O)[C@]2(C)[C@@H](OC(C)=O)C[C@@H](OC(C)=O)/C(CO)=C\[C@@H]3OC(=O)[C@H](C)[C@@]3(O)[C@@H](OC(C)=O)[C@@H]12 | 40.7 | > 50 |  |
| C=C1/C=C/[C@H](OC(C)=O)[C@@]2(C)[C@@H](OC(C)=O)C[C@@H](OC(C)=O)[C@]3(CO3)[C@@H]2[C@H](OC(C)=O)[C@]2(O)[C@@H](C)C(=O)O[C@H]2[C@H]1Cl [GEMMACOLIDE H] | 13.1 | > 50 |  |
| C=C1[C@H](Cl)[C@@H]2OC(=O)[C@H](C)[C@]23O[C@]1(O)C[C@H](OC(C)=O)[C@@]1(C)[C@@H](OC(C)=O)C[C@@H](OC(=O)CC(C)C)[C@]2(CO2)[C@@H]1[C@@H]3OC(C)=O |  | > 50 | inactive |
| C=C1[C@H]2O[C@]3([C@@H](C)C(=O)O[C@H]3[C@H]1Cl)[C@@H](OC(C)=O)[C@H]1[C@@]3(CO3)[C@H](OC(=O)CC(C)C)C[C@H](OC(C)=O)[C@]1(C)[C@@H](OC(C)=O)[C@@H]2OC(C)=O | 51.7 | > 50 |  |
| C=C1/C=C\[C@@H](OC(=O)COC(=O)CC(C)C)[C@@]2(C)[C@@H](OC(C)=O)[C@@H](OC(C)=O)[C@@H](OC(=O)CC(C)C)[C@]3(CO3)[C@@H]2[C@H](OC(C)=O)[C@]2(O)[C@@H](C)C(=O)O[C@H]2C1Cl (some centres not stated) | 84.3 | > 50 |  |
| CC(=O)O[C@H]1/C=C\C(CO)=C/[C@@H]2OC(=O)[C@H](C)[C@@]2(O)[C@@H](OC(C)=O)[C@H]2[C@@]3(CO3)[C@H](OC(=O)CC(C)C)C[C@H](OC(C)=O)[C@]12C |  | < 10 |  |
| CCOCC1=C/[C@@H]2OC(=O)[C@H](C)[C@@]2(O)[C@@H](OC(C)=O)[C@H]2[C@@]3(CO3)[C@H](OC(=O)CC(C)C)C(OC(C)=O)[C@H](OC(C)=O)[C@]2(C)[C@@H](OC(=O)COC(=O)CC(C)C)/C=C\1 (some centres not stated) | 41.9 | > 50 |  |
